System: T1, soluble HRP (horseradish peroxidase)
T1 construct: gene PRXC1A; soluble (free) enzyme, gift of Dr. Elba Bon (UFRJ)
Assay: spectrophotometric, purpurogallin formation at […] nm, nonlinear hyperbolic fit
Assay type: biochemical, Armoracia rusticana
Conditions: soluble enzyme; co-substrate H2O2 (0.25 mL of 5 mM); pyrogallol 4.0-48.7 mM; 28 °C; pH of kinetics not clearly stated (4.5 or 7.0)

Oc1cccc(O)c1O [pyrogallol]
Km: 5.47 ± 0.71 mM

— article PMC3349093, “Immobilized Horseradish Peroxidase on Discs of Polyvinyl Alcohol-Glutaraldehyde Coated with Polyaniline” (The Scientific World Journal, 2012)
